Source: EP0318056A2, “Novel antibiotics and process for preparing the same” (MEIJI SEIKA KAISHA LTD., priority 1987, dated 1989)
≈ marks a conversion by molar mass, not a printed value.

Legend:
[1] = system: PC10; test: Cytotoxicity on tumor cells; assay type: cell-based; conditions: PC10, human lung cancer; 37°C, 72 hours, 5% CO₂; probit method; read-out: IC₅₀
[2] = system: K562; test: Cytotoxicity on tumor cells; assay type: cell-based; conditions: K562, human leukaemia; 37°C, 72 hours, 5% CO₂; probit method; read-out: IC₅₀
[3] = system: PC13; test: Cytotoxicity on tumor cells; assay type: cell-based; conditions: PC-13; PC13, human lung cancer; 37°C, 72 hours, 5% CO₂; probit method; read-out: IC₅₀
[4] = system: HMV-1; test: Cytotoxicity on tumor cells; assay type: cell-based; conditions: HMV-1, human melanoma; 37°C, 72 hours, 5% CO₂; probit method; read-out: IC₅₀
[5] = system: Meth-A; test: Cytotoxicity on tumor cells; assay type: cell-based; conditions: mouse fibrosarcoma, 37°C, 72 hours, 5% CO₂, probit method, read-out: IC₅₀
[6] = system: B16; test: Cytotoxicity on tumor cells; assay type: cell-based; conditions: B16, mouse melanoma; 37°C, 72 hours, 5% CO₂; probit method; read-out: IC₅₀
[7] = system: PC14; test: Cytotoxicity on tumor cells; assay type: cell-based; conditions: PC-14; PC14, human lung cancer; 37°C, 72 hours, 5% CO₂; probit method; read-out: IC₅₀
[8] = system: L-1210; test: Cytotoxicity on tumor cells; assay type: cell-based; conditions: L1210; L-1210, mouse leukemia; 37°C, 72 hours, 5% CO₂; probit method; read-out: IC₅₀
[9] = mice, dose of 200 mg/kg (i.p.)
[10] = system: P-388; test: Cytotoxicity on tumor cells; assay type: cell-based; conditions: P388; P-388, mouse leukemia; 37°C, 72 hours, 5% CO₂; probit method; read-out: IC₅₀
[11] = system: KB; test: Cytotoxicity on tumor cells; assay type: cell-based; conditions: human nasopharynx, 37°C, 72 hours, 5% CO₂, probit method, read-out: IC₅₀
[12] = system: HL-60; test: Cytotoxicity on tumor cells; assay type: cell-based; conditions: HL-60, human leukemia; 37°C, 72 hours, 5% CO₂; probit method; read-out: IC₅₀
[13] = in vivo; conditions: mouse, ip
[14] = system: Pseudomonas aeruginosa MB-3829; test: Antimicrobial activity, serial dilution method on agar plate; assay type: cell-based; conditions: MB3829, read-out: Minimum Inhibitory Concn.
Description: (§1) The antimicrobial activity of SF2582 A and B on various test microorganisms shown in Table 2 below were determined by the serial dilution method on agar plate, and the minimum inhibitory concentrations (µg/ml) obtained are shown in Table 2 below.

[15] = system: Morganella morganii Kono; test: as above; assay type: cell-based; conditions: read-out: Minimum Inhibitory Concn.
Description: as §1

[16] = system: Enterococcus faecalis ATCC 8043; test: as above; assay type: cell-based; conditions: ATCC8043, read-out: Minimum Inhibitory Concn.
Description: as §1

[17] = system: Citrobacter freundii GN 346; test: as above; assay type: cell-based; conditions: GN346, read-out: Minimum Inhibitory Concn.
Description: as §1

[18] = system: Proteus vulgaris OX 19; test: as above; assay type: cell-based; conditions: OX19, read-out: Minimum Inhibitory Concn.
Description: as §1

[19] = system: Staphylococcus aureus No. 26; test: as above; assay type: cell-based; conditions: read-out: Minimum Inhibitory Concn.
Description: as §1

[20] = system: Providencia rettgeri J-0026; test: as above; assay type: cell-based; conditions: J0026, read-out: Minimum Inhibitory Concn.
Description: as §1

[21] = system: Manthomonas maltophilia M-0627; test: as above; assay type: cell-based; conditions: read-out: Minimum Inhibitory Concn.
Description: as §1

[22] = system: Salmonella enteritidis No. 11; test: as above; assay type: cell-based; conditions: Salmonella enterica, read-out: Minimum Inhibitory Concn.
Description: as §1

[23] = system: Staphylococcus epidermidis 109; test: as above; assay type: cell-based; conditions: read-out: Minimum Inhibitory Concn.
Description: as §1

[24] = system: Salmonella typhimurium LT-2; test: as above; assay type: cell-based; conditions: Salmonella enterica, read-out: Minimum Inhibitory Concn.
Description: as §1

[25] = system: Salmonella typhi O-901-W; test: as above; assay type: cell-based; conditions: Salmonella enterica, read-out: Minimum Inhibitory Concn.
Description: as §1

[26] = system: Escherichia coli W 3630 RGN 823; test: as above; assay type: cell-based; conditions: W3630RGN823, read-out: Minimum Inhibitory Concn.
Description: as §1

[27] = system: Escherichia coli JC-2; test: as above; assay type: cell-based; conditions: JC2, read-out: Minimum Inhibitory Concn.
Description: as §1

[28] = system: Klebsiella pneumoniae PCI 602; test: as above; assay type: cell-based; conditions: PCI602, read-out: Minimum Inhibitory Concn.
Description: as §1

[29] = system: Staphylococcus epidermidis ATCC 14990; test: as above; assay type: cell-based; conditions: ATCC14990, read-out: Minimum Inhibitory Concn.
Description: as §1

[30] = system: Staphylococcus aureus 209P JC-1; test: as above; assay type: cell-based; conditions: read-out: Minimum Inhibitory Concn.
Description: as §1

[31] = system: Escherichia coli No. 29; test: as above; assay type: cell-based; conditions: read-out: Minimum Inhibitory Concn.
Description: as §1

[32] = system: Shigella sonnei EW 33 Type 1; test: as above; assay type: cell-based; conditions: EW33TYPE1, read-out: Minimum Inhibitory Concn.
Description: as §1

[33] = system: Salmonella sp. D-0001; test: as above; assay type: cell-based; conditions: SP.D0001, read-out: Minimum Inhibitory Concn.
Description: as §1

[34] = system: Klebsiella pneumoniae 22 #3038; test: as above; assay type: cell-based; conditions: read-out: Minimum Inhibitory Concn.
Description: as §1

[35] = system: Escherichia coli JR 661 W/677; test: as above; assay type: cell-based; conditions: JR661W/677, read-out: Minimum Inhibitory Concn.
Description: as §1

[36] = system: Staphylococcus aureus Smith S-424; test: as above; assay type: cell-based; conditions: SMITHS424, read-out: Minimum Inhibitory Concn.
Description: as §1

[37] = system: Proteus mirabilis GN 310; test: as above; assay type: cell-based; conditions: GN310, read-out: Minimum Inhibitory Concn.
Description: as §1

[38] = system: Serratia marcescens MB-3848; test: as above; assay type: cell-based; conditions: MB3848, read-out: Minimum Inhibitory Concn.
Description: as §1

[39] = system: Bacillus anthracis No. 119; test: microbe, parasite or virus in culture; assay type: cell-based; conditions: NO.119, read-out: Minimum Inhibitory Concn.
[40] = system: P-388 tumor cells; test: Antitumor activity in mice intraperitoneally implanted with P-388 tumor cells; assay type: in vivo; conditions: P-388 mice
[41] = qualitative, in the named solvents

Row | SMILES | LD50 at 336 h [13] [mg/kg] | MIC [14] [µg/mL] | MIC [15] [µg/mL] | MIC [16] [µg/mL] | MIC [17] [µg/mL] | MIC [18] [µg/mL] | MIC [19] [µg/mL] | MIC [20] [µg/mL] | MIC [21] [µg/mL] | MIC [22] [µg/mL] | MIC [23] [µg/mL] | MIC [24] [µg/mL] | MIC [25] [µg/mL] | MIC [26] [µg/mL] | MIC [27] [µg/mL] | MIC [28] [µg/mL] | MIC [29] [µg/mL] | MIC [30] [µg/mL] | MIC [31] [µg/mL] | MIC [32] [µg/mL] | also measured
1 | COC(=O)C1(C)Nc2c(O)cc3c(c2C1=O)C(CO)CN3C(=O)c1cc2cc(OC)c(OC)c(OC)c2[nH]1 (stereo not shown) | – | – | – | – | – | – | – | – | – | – | – | – | – | – | – | – | – | – | – | – | IC50 [1]: 14.1 µg/mL (≈ 26.8 µM); IC50 [2]: 35.6 µg/mL (≈ 67.7 µM); IC50 [3]: 39.5 µg/mL (≈ 75.2 µM); IC50 [4]: 12.1 µg/mL (≈ 23 µM); IC50 [5]: 42 µg/mL (≈ 79.9 µM); IC50 [6]: 5.1 µg/mL (≈ 9.7 µM); IC50 [7]: > 50 µg/mL; IC50 [8]: 1.3 µg/mL (≈ 2.47 µM); death in acute toxicity test [9]: no case of death; IC50 [10]: 9.4 µg/mL (≈ 17.9 µM); IC50 [11]: 18 µg/mL (≈ 34.3 µM); IC50 [12]: 31.5 µg/mL (≈ 59.9 µM)
2 | COC(=O)C1(C)Nc2c(O)cc3c(c2C1=O)C(CCl)CN3C(=O)c1cc2cc(OC)c(OC)c(OC)c2[nH]1 (stereo not shown) [SF2582 A] | 0.25 to 1 | 25 (≈ 46 µM) | 50 (≈ 91.9 µM) | 0.05 (≈ 0.0919 µM) | 3.13 (≈ 5.75 µM) | > 100 | < 0.025 | 25 (≈ 46 µM) | 100 (≈ 184 µM) | 0.78 (≈ 1.43 µM) | < 0.025 | 12.5 (≈ 23 µM) | 3.13 (≈ 5.75 µM) | 6.25 (≈ 11.5 µM) | 12.5 (≈ 23 µM) | 25 (≈ 46 µM) | 0.05 (≈ 0.0919 µM) | < 0.025 | 6.25 (≈ 11.5 µM) | 3.13 (≈ 5.75 µM) | MIC [33]: 12.5 µg/mL (≈ 23 µM); MIC [34]: 25 µg/mL (≈ 46 µM); MIC [35]: 12.5 µg/mL (≈ 23 µM); MIC [36]: < 0.025 µg/mL; MIC [37]: 25 µg/mL (≈ 46 µM); MIC [38]: 25 µg/mL (≈ 46 µM); MIC [39]: 0.05 µg/mL (≈ 0.0919 µM); T/C (effect of improving incidence of survival) ([40]; dose 0.033 mg/kg intraperitoneally, once a day for consecutive 2 days): 114%; T/C (effect of improving incidence of survival) ([40]; dose 0.13 mg/kg intraperitoneally, once a day for consecutive 2 days): 148%; T/C (effect of improving incidence of survival) ([40]; dose 0.54 mg/kg intraperitoneally, once a day for consecutive 2 days): 128%; T/C (effect of improving incidence of survival) ([40]; dose 2.14 mg/kg intraperitoneally, once a day for consecutive 2 days): 80%; Solubility [41]: soluble in methanol, ethyl acetate, acetone, chloroform, or dimethyl sufoxide; insoluble in water or haxane
3 | COC(=O)C1(C)Nc2c(O)cc3c(c2C1=O)CC(Cl)CN3C(=O)c1cc2cc(OC)c(OC)c(OC)c2[nH]1 (stereo not shown) [SF2582 B] | 1 to 2 | 50 (≈ 91.9 µM) | 50 (≈ 91.9 µM) | 0.1 (≈ 0.184 µM) | 6.25 (≈ 11.5 µM) | 50 (≈ 91.9 µM) | < 0.025 | 25 (≈ 46 µM) | 100 (≈ 184 µM) | 1.56 (≈ 2.87 µM) | 0.05 (≈ 0.0919 µM) | 25 (≈ 46 µM) | 3.13 (≈ 5.75 µM) | 12.5 (≈ 23 µM) | 25 (≈ 46 µM) | 50 (≈ 91.9 µM) | 0.05 (≈ 0.0919 µM) | 0.05 (≈ 0.0919 µM) | 12.5 (≈ 23 µM) | 6.25 (≈ 11.5 µM) | MIC [33]: 25 µg/mL (≈ 46 µM); MIC [34]: > 100 µg/mL; MIC [35]: 25 µg/mL (≈ 46 µM); MIC [36]: < 0.025 µg/mL; MIC [37]: 25 µg/mL (≈ 46 µM); MIC [38]: 25 µg/mL (≈ 46 µM); MIC [39]: 0.05 µg/mL (≈ 0.0919 µM); T/C (effect of improving incidence of survival) ([40]; dose 0.16 mg/kg intraperitoneally, only once): 117%; T/C (effect of improving incidence of survival) ([40]; dose 0.63 mg/kg intraperitoneally, only once): 159%; T/C (effect of improving incidence of survival) ([40]; dose 2.5 mg/kg intraperitoneally, only once): 159%; T/C (effect of improving incidence of survival) ([40]; dose 10.0 mg/kg intraperitoneally, only once): 80%; Solubility [41]: soluble in methanol, ethyl acetate, acetone, chloroform, or dimethyl sufoxide; insoluble in water or haxane
